Earlier results in PubChem BioAssay AID1259409 (Chemical Carcinogenesis Research Information System (CCRIS), 2018).

System: rodent chemically induced tumor inhibition, incidence and multiplicity
Assay: CCRIS tumor inhibitor studies

CC1=C(/C=C/C(C)=C/C=C/C(C)=C/C(=O)Nc2ccc(C(=O)O)cc2)C(C)(C)CCC1
tumour outcome (control, treated, inhibition, significance) (Carcinogen: L-AZASERINE, 115-02-6, Dose [Inhibitor]: 1 MMOL/KG DIET DAILY FOR 91 D FOLLOWED BY 0.5 MMOL/KG DIET DAILY FOR 246 D DURING A 358 D PERIOD STARTING 1 WK AFTER COM, Route [Inhibitor]: ORAL, Species: RAT, Strain/Sex: WISTAR-LEWIS/FEMALE, Target Tissue: Type of Lesion: PANCREAS: ADENOMA, Dose [Carcinogen]: 10 MG/KG BW 1/WK FOR 15 WK, Promoter: NONE USED): 35%, 38%, -9%, not significant | tumour outcome (control, treated, inhibition, significance) (Carcinogen: L-AZASERINE, 115-02-6, Dose [Inhibitor]: 1 MMOL/KG DIET DAILY FOR 91 D FOLLOWED BY 0.5 MMOL/KG DIET DAILY FOR 246 D DURING A 358 D PERIOD STARTING 1 WK AFTER COM, Route [Inhibitor]: ORAL, Species: RAT, Strain/Sex: WISTAR-LEWIS/FEMALE, Target Tissue: Type of Lesion: PANCREAS: CARCINOMA IN SITU, Dose [Carcinogen]: 10 MG/KG BW 1/WK FOR 15 WK, Promoter: NONE USED): 48%, 8%, 83%, not significant | tumour outcome (control, treated, inhibition, significance) (Carcinogen: L-AZASERINE, 115-02-6, Dose [Inhibitor]: 1 MMOL/KG DIET DAILY FOR 91 D FOLLOWED BY 0.5 MMOL/KG DIET DAILY FOR 246 D DURING A 358 D PERIOD STARTING 1 WK AFTER COM, Route [Inhibitor]: ORAL, Species: RAT, Strain/Sex: WISTAR-LEWIS/FEMALE, Target Tissue: Type of Lesion: PANCREAS: CARCINOMA, Dose [Carcinogen]: 10 MG/KG BW 1/WK FOR 15 WK, Promoter: NONE USED): 4%, 0%, 100%, not significant | tumour outcome (control, treated, inhibition, significance) (Carcinogen: L-AZASERINE, 115-02-6, Dose [Inhibitor]: 1 MMOL/KG DIET DAILY FOR 91 D FOLLOWED BY 0.5 MMOL/KG DIET DAILY FOR 246 D DURING A 358 D PERIOD STARTING 1 WK AFTER COM, Route [Inhibitor]: ORAL, Species: RAT, Strain/Sex: WISTAR-LEWIS/FEMALE, Target Tissue: Type of Lesion: PANCREAS: NEOPLASM, Dose [Carcinogen]: 10 MG/KG BW 1/WK FOR 15 WK STARTING 15 WK, Promoter: NONE USED): 87%, 46%, 47%, p<0.05 | tumour outcome (control, treated, inhibition, significance) (Carcinogen: L-AZASERINE, 115-02-6, Dose [Inhibitor]: 1 MMOL/KG DIET DAILY FOR 91 D FOLLOWED BY 0.5 MMOL/KG DIET DAILY FOR 246 D DURING A 358 D PERIOD STARTING 1 WK AFTER COM, Route [Inhibitor]: ORAL, Species: RAT, Strain/Sex: WISTAR-LEWIS/MALE, Target Tissue: Type of Lesion: PANCREAS: ADENOMA, Dose [Carcinogen]: 10 MG/KG BW 1/WK FOR 15 WK, Promoter: NONE USED): 29%, 16%, 45%, not significant | tumour outcome (control, treated, inhibition, significance) (Carcinogen: L-AZASERINE, 115-02-6, Dose [Inhibitor]: 1 MMOL/KG DIET DAILY FOR 91 D FOLLOWED BY 0.5 MMOL/KG DIET DAILY FOR 246 D DURING A 358 D PERIOD STARTING 1 WK AFTER COM, Route [Inhibitor]: ORAL, Species: RAT, Strain/Sex: WISTAR-LEWIS/MALE, Target Tissue: Type of Lesion: PANCREAS: CARCINOMA IN SITU, Dose [Carcinogen]: 10 MG/KG BW 1/WK FOR 15 WK, Promoter: NONE USED): 58%, 64%, -10%, not significant | tumour outcome (control, treated, inhibition, significance) (Carcinogen: L-AZASERINE, 115-02-6, Dose [Inhibitor]: 1 MMOL/KG DIET DAILY FOR 91 D FOLLOWED BY 0.5 MMOL/KG DIET DAILY FOR 246 D DURING A 358 D PERIOD STARTING 1 WK AFTER COM, Route [Inhibitor]: ORAL, Species: RAT, Strain/Sex: WISTAR-LEWIS/MALE, Target Tissue: Type of Lesion: PANCREAS: CARCINOMA, Dose [Carcinogen]: 10 MG/KG BW 1/WK FOR 15 WK, Promoter: NONE USED): 8%, 16%, -100%, not significant | tumour outcome (control, treated, inhibition, significance) (Carcinogen: L-AZASERINE, 115-02-6, Dose [Inhibitor]: 1 MMOL/KG DIET DAILY FOR 91 D FOLLOWED BY 0.5 MMOL/KG DIET DAILY FOR 246 D DURING A 358 D PERIOD STARTING 1 WK AFTER COM, Route [Inhibitor]: ORAL, Species: RAT, Strain/Sex: WISTAR-LEWIS/MALE, Target Tissue: Type of Lesion: PANCREAS: NEOPLASM, Dose [Carcinogen]: 10 MG/KG BW 1/WK FOR 15 WK, Promoter: NONE USED): 95%, 96%, -1%, not significant

C=C1CC[C@H]2[C@](C)(COC(=O)[C@@H](CC(=O)O)[C@@H](OC[C@H]3C(=C)CC[C@H]4[C@](C)(CO)CCC[C@]34C)C(=O)OC)CCC[C@]2(C)[C@H]1CO[C@@H](C(=O)OC)[C@H](CC(=O)O)C(=O)OC
tumour outcome (control, treated, inhibition, significance) (Carcinogen: 1,2-DIMETHYLHYDRAZINE DIHYDROCHLORIDE, 306-37-6, Dose [Inhibitor]: 0: 0.06% IN DIET FOR DURATION OF STUDY (STUDY DURATION: 25 WK), Route [Inhibitor]: ORAL, Species: MOUSE, Strain/Sex: ICR/FEMALE, Target Tissue: Type of Lesion: COLON: TUMOR, Dose [Carcinogen]: 10 MG/KG BW IN 0.9% SALINE 1/WK FOR 15 WK, Promoter: NONE USED): 10/16 (63%), 5/16 (31%), 51%, not significant | tumour outcome (control, treated, inhibition, significance) (Carcinogen: 7,12-DIMETHYLBENZ[A]ANTHRACENE, 57-97-6, Dose [Inhibitor]: 0, 1 MG 2/WK FOR 20 WK APPLIED 10 MIN PRIOR TO EACH PROMOTER DOSE (STUDY DURATION: 20 WK), Route [Inhibitor]: DERMAL, Species: MOUSE, Strain/Sex: CD-1/FEMALE, Target Tissue: Type of Lesion: SKIN: TUMOR, Dose [Carcinogen]: 100 UG ONCE, Promoter: OKADAIC ACID, 78111-17-8): 73%, 53%, 27%, not calculated | tumour outcome (control, treated, inhibition, significance) (Carcinogen: 7,12-DIMETHYLBENZ[A]ANTHRACENE, 57-97-6, Dose [Inhibitor]: 0, 5 MG 2/WK FOR 20 WK APPLIED 10 MIN PRIOR TO EACH PROMOTER DOSE (STUDY DURATION: 20 WK), Route [Inhibitor]: DERMAL, Species: MOUSE, Strain/Sex: CD-1/FEMALE, Target Tissue: Type of Lesion: SKIN: TUMOR, Dose [Carcinogen]: 100 UG ONCE, Promoter: OKADAIC ACID, 78111-17-8): 73%, 20%, 73%, not calculated | tumour outcome (control, treated, inhibition, significance) (Carcinogen: N-METHYL-N-NITROSOUREA, 684-93-5, Dose [Inhibitor]: 0, 0.2% IN DIET FOR 33 WK BEGINNING POST CARCINOGEN TREATMENT (STUDY DURATION: 35 WK), Route [Inhibitor]: ORAL, Species: RAT, Strain/Sex: F344/FEMALE, Target Tissue: Type of Lesion: COLON: TUMOR, Dose [Carcinogen]: 2 MG 3/WK FOR 2 WK, Promoter: NONE USED): 12/16 (75%), 5/16 (31%), 57%, p<0.05

CCCC(=O)O
tumour outcome (control, treated, inhibition, significance) (Carcinogen: 7,12-DIMETHYLBENZ[A]ANTHRACENE, 57-97-6, Dose [Inhibitor]: 0, 6% IN BASAL DIET BEGINNING 1 WK PRIOR TO CARCINOGEN DOSE AND CONTINUING FOR DURATION OF STUDY (STUDY DURATION: >15 WK, Route [Inhibitor]: ORAL, Species: RAT, Strain/Sex: SPRAGUE-DAWLEY/FEMALE, Target Tissue: Type of Lesion: MAMMARY GLAND: ADENOCARCINOMA, Dose [Carcinogen]: 5 MG IN 0.5 ML CORN OIL ONCE, Promoter: NONE USED): 10/26 (38%), 4/20 (20%), 47%, not significant | tumour outcome (control, treated, inhibition, significance) (Carcinogen: 7,12-DIMETHYLBENZ[A]ANTHRACENE, 57-97-6, Dose [Inhibitor]: 0, 6% IN BASAL DIET BEGINNING 1 WK PRIOR TO CARCINOGEN DOSE AND CONTINUING FOR DURATION OF STUDY (STUDY DURATION: >15 WK, Route [Inhibitor]: ORAL, Species: RAT, Strain/Sex: SPRAGUE-DAWLEY/FEMALE, Target Tissue: Type of Lesion: MAMMARY GLAND: CARCINOMA, Dose [Carcinogen]: 5 MG IN 0.5 ML CORN OIL ONCE, Promoter: NONE USED): 11/26 (42%), 8/20 (40%), 5%, not significant | tumour outcome (control, treated, inhibition, significance) (Carcinogen: 7,12-DIMETHYLBENZ[A]ANTHRACENE, 57-97-6, Dose [Inhibitor]: 0, 6% IN DIET CONTAINING 20% SAFFLOWER MARGARINE BEGINNING 1 WK PRIOR TO CARCINOGEN DOSE AND CONTINUING FOR DURATION OF, Route [Inhibitor]: ORAL, Species: RAT, Strain/Sex: SPRAGUE-DAWLEY/FEMALE, Target Tissue: Type of Lesion: MAMMARY GLAND: ADENOCARCINOMA, Dose [Carcinogen]: 5 MG IN 0.5 ML CORN OIL ONCE, Promoter: NONE USED): 14/19 (74%), 8/20 (40%), 46%, p<0.05 | tumour outcome (control, treated, inhibition, significance) (Carcinogen: 7,12-DIMETHYLBENZ[A]ANTHRACENE, 57-97-6, Dose [Inhibitor]: 0, 6% IN DIET CONTAINING 20% SAFFLOWER MARGARINE BEGINNING 1 WK PRIOR TO CARCINOGEN DOSE AND CONTINUING FOR DURATION OF, Route [Inhibitor]: ORAL, Species: RAT, Strain/Sex: SPRAGUE-DAWLEY/FEMALE, Target Tissue: Type of Lesion: MAMMARY GLAND: CARCINOMA, Dose [Carcinogen]: 5 MG IN 0.5 ML CORN OIL ONCE, Promoter: NONE USED): 16/19 (84%), 11/20 (55%), 35%, p<0.05
